Results taken from patent US20260209196A1, “AMIDINOUREA DERIVATIVES AND THEIR USE IN THE TREATMENT OF CANCER” (UNIVERSITE COTE D'AZUR, priority 2022, published 2026).
Like-named read-outs stand apart in the source and are kept apart here.

How the values were obtained:
A375 = experiment: Cell viability of A375 melanoma cells by Trypan Blue exclusion; type: cell-based; conditions: Homo sapiens, A-375, viable cells as mean percentage of control cells ± SEM, N=3
Method: The BRAFV600E mutant melanoma line A375 (CRL-1619) was purchased from ATCC (Manassas, VA, USA). The A375 were maintained in glutamine-containing DMEM supplemented with 10% heat-inactivated fetal bovine serum, penicillin (100 units/ml) and streptomycin ([…]).
Cell viability was measured by the Trypan Blue exclusion method. Briefly, cells washed with PBS were harvested by a 3-minute incubation in 0.05% trypsin before neutralization with serum containing medium. An aliquot of the cell suspension was then mixed 1:1 with a 0.4% Trypan blue solution and viable cells were counted within 5 minutes on Kova slides under an optical microscope. Results are expressed as the mean percentage of control cells±SEM. N=3

NCI 60 cell panel = experiment: DTP-NCI assay (NCI 60 cell screen, single high dose); type: cell-based; conditions: Homo sapiens, 48 h; single high dose 10^-5 M, full NCI 60 cell panel; growth relative to no-drug control and to time zero number of cells; read-out: DTP-NCI (mean of the percent growth of treated cells)
Method: The effect of 10 μM of MTF504 was monitored on a panel 60 cell lines representing nine distinct tumour types: leukemia, colon, lung, central nervous system, renal, melanoma, ovarian, breast and prostate. Briefly, the compound was sent to the US National Cancer Institute where its antineoplastic effects were monitored on the panel of cell lines after 48 hours of treatment following a standardized protocol.
All compounds submitted to the NCI 60 Cell screen are tested initially at a single high dose (10^-5 M) in the full NCI 60 cell panel. The results are reported as a mean of the percent growth of treated cells. The number reported is growth relative to the no-drug control, and relative to the time zero number of cells. This allows detection of […].

[1] = 24 h, read-out: Viab A375 5 μM/24 h
[2] = 48 h, read-out: Viab A375 5 μM/48 h
[3] = 24 h, read-out: Viab A375 10 μM/24 h
[4] = 48 h, read-out: Viab A375 10 μM/48 h

| SMILES | viability at 5 µM (A375; [1]) | viability at 5 µM (A375; [2]) | viability at 10 µM (A375; [3]) | viability at 10 µM (A375; [4]) | activity at 10 µM (NCI 60 cell panel) |
| --- | --- | --- | --- | --- | --- |
| N=C(NC(=O)Nc1cccc(Cl)c1)Nc1nc2ccccc2s1 [MTF415, N-benzo[d]thiazol-2-yl-N″-(3-chloroaniline-carbonyl)-guanidine] | 93.5% | 32.9% | 58.3% | 19.9% | 35.4% |
| N=C(NC(=O)Nc1ccccc1Br)Nc1nc2ccccc2s1 [MTF651, N-benzo[d]thiazol-2-yl-N″-(2-bromoaniline-carbonyl)-guanidine] | – | – | – | – | -17.8% |
| COc1ccccc1NC(=O)NC(=N)Nc1nc(-c2ccccc2)cs1 [MTF433, N-4-phenylthiazol-2-yl-N″-(2-methoxyaniline-carbonyl)-guanidine] | 109% | 43.9% | – | – | – |
| N=C(NC(=O)Nc1cccc2ccccc12)Nc1nc(-c2cccc([N+](=O)[O-])c2)cs1 [MTF430, N-4-(3-nitrophenyl) thiazol-2-yl-N″-(naphtalen-1-amine-carbonyl)-guanidine] | 75.8% | 25.3% | – | – | 89.2% |
| COc1ccccc1NC(=O)NC(=N)Nc1nc2ccccc2s1 [MTF419, N-benzo[d]thiazol-2-yl-N″-(2-methoxyaniline-carbonyl)-guanidine] | 62.6% | 18.8% | 56.8% | 21.8% | 26.7% |
| CCc1ccccc1NC(=O)NC(=N)Nc1nc2ccccc2s1 [MTF653, N-benzo[d]thiazol-2-yl-N″-(2-ethylaniline-carbonyl)-guanidine] | – | – | – | – | 0.27% |
| COc1ccccc1NC(=O)NC(=N)Nc1nc(-c2cccc([N+](=O)[O-])c2)cs1 [MTF434, N-4-(3-nitrophenyl) thiazol-2-yl-N″-(2-methoxyaniline-carbonyl)-guanidine] | 63.8% | 50.7% | – | – | – |
| N=C(NC(=O)NC1CC1)Nc1nc2ccccc2s1 [MTF214, N—(N-(benzo[d]thiazol-2-yl)carbamimidoyl)cyclopropylamine-1-carboxamide] | 98.2% | 76.6% | 51.5% | 87.7% | – |
| CCOc1ccccc1NC(=O)NC(=N)Nc1nc2ccccc2s1 [MTF652, N-benzo[d]thiazol-2-yl-N″-(2-ethoxyaniline-carbonyl)-guanidine] | – | – | – | – | 12.6% |
| N=C(NC(=O)Nc1ccccc1Cl)Nc1nc2ccc([N+](=O)[O-])cc2s1 [MTF657, N-6-nitrobenzo[d]thiazol-2-yl-N″-(2-chloroaniline-carbonyl)-guanidine] | – | – | – | – | 31.2% |
| Cc1nc(NC(=N)NC(=O)Nc2ccc(Cl)cc2)sc1C [MTF507, 4,5-dimethylthiazol-2-yl-N″-(4-chloroaniline-carbonyl)-guanidine] | 98.9% | 139% | – | – | – |
| Cc1nc(NC(=N)NC(=O)Nc2ccccc2Cl)sc1C [MTF505, 4,5-dimethylthiazol-2-yl-N″-(2-chloroaniline-carbonyl)-guanidine] | 31.1% | 10% | – | – | 33% |
| COc1cccc(NC(=O)NC(=N)Nc2nc(C)c(C)s2)c1 [MTF511, 4,5-dimethylthiazol-2-yl-N″-(3-methoxyaniline-carbonyl)-guanidine] | 92.1% | 82.8% | – | – | – |
| N=C(NC(=O)Nc1ccc(Cl)cc1Cl)Nc1nc2ccccc2s1 [MTF649, N-benzo[d]thiazol-2-yl-N″-(2,4-dichloroaniline-carbonyl)-guanidine] | – | – | – | – | -58.2% |
| Cc1cccc(NC(=O)NC(=N)Nc2nc(C)c(C)s2)c1 [MTF510, 4,5-dimethylthiazol-2-yl-N″-(3-methylaniline-carbonyl)-guanidine] | 56.5% | 26.1% | – | – | 47.2% |
| N=C(NC(=O)Nc1ccc(Cl)cc1)Nc1nc(-c2cccc([N+](=O)[O-])c2)cs1 [MTF428, N-4-(3-nitrophenyl) thiazol-2-yl-N″-(4-chloroaniline-carbonyl)-guanidine] | 128% | 50.2% | – | – | – |
| Cc1ccccc1NC(=O)NC(=N)Nc1nc(C)c(C)s1 [MTF509, 4,5-dimethylthiazol-2-yl-N″-(2-methylaniline-carbonyl)-guanidine] | 23% | 13.6% | – | – | 29.3% |

| SMILES | viability at 5 µM (A375; [1]) | viability at 5 µM (A375; [2]) | viability at 10 µM (A375; [3]) | viability at 10 µM (A375; [4]) | activity at 10 µM (NCI 60 cell panel) |
| --- | --- | --- | --- | --- | --- |
| N=C(NC(=O)Nc1cccc2ccccc12)Nc1nc(-c2ccccc2)cs1 [MTF435, N-4-phenylthiazol-2-yl-N″-(naphtalen-1-amine-carbonyl)-guanidine] | 81% | 84.6% | – | – | – |
| Cc1ccc(Cl)cc1NC(=O)NC(=N)Nc1nc2ccccc2s1 [MTF656, N-benzo[d]thiazol-2-yl-N″-(2-methyl-5-chloroaniline-carbonyl)-guanidine] | – | – | – | – | -19.4% |
| Cc1cccc(NC(=O)NC(=N)Nc2nc(-c3cccc([N+](=O)[O-])c3)cs2)c1 [MTF431, N-4-(3-nitrophenyl) thiazol-2-yl-N″-(3-methylaniline-carbonyl)-guanidine] | 95.4% | 41.6% | – | – | – |
| Cc1cccc(NC(=O)NC(=N)Nc2nc3ccccc3s2)c1 [MTF420, N-benzo[d]thiazol-2-yl-N″-(3-methylaniline-carbonyl)-guanidine] | 59% | 24.8% | 48.9% | 20.4% | 32.9% |
| COc1cccc(NC(=O)NC(=N)Nc2nc(-c3cccc([N+](=O)[O-])c3)cs2)c1 [MTF432, N-4-(3-nitrophenyl) thiazol-2-yl-N″-(3-methoxyaniline-carbonyl)-guanidine] | 115% | 29.8% | – | – | 74.8% |
| Cc1nc(NC(=N)NC(=O)Nc2cccc(Cl)c2)sc1C [MTF506, 4,5-dimethylthiazol-2-yl-N″-(3-chloroaniline-carbonyl)-guanidine] | 64.3% | 54.5% | – | – | 67.7% |
| Cc1nc(NC(=N)NC(=O)Nc2cccc([N+](=O)[O-])c2)sc1C [MTF512, 4,5-dimethylthiazol-2-yl-N″-(3-nitroaniline-carbonyl)-guanidine] | 87% | 54.3% | – | – | – |
| N=C(NC(=O)Nc1ccccc1[N+](=O)[O-])Nc1nc2ccccc2s1 [MTF655, N-benzo[d]thiazol-2-yl-N″-(2-nitroaniline-carbonyl)-guanidine] | – | – | – | – | 11.6% |
| Cc1ccccc1NC(O)NC(=N)Nc1nc(-c2cccc([N+](=O)[O-])c2)cs1 (stereo not shown) [MTF515, N-4-(3-nitrophenyl) thiazol-2-yl-N″-(2-methylaniline-carbonyl)-guanidine] | 64.9% | 28.7% | – | – | 37.7% |
| N=C(NC(=O)Nc1ccccc1)Nc1nc2ccccc2s1 [MTF314, N—(N-(benzo[d]thiazol-2-yl)carbamimidoyl)-anilinocarboxamide] | 53.5% | 12.3% | 32.7% | 7.6% | 37.4% |
| N=C(NC(=O)Nc1cccc2ccccc12)Nc1nc2ccccc2s1 [MTF418, N-benzo[d]thiazol-2-yl-N″-(naphtalen-1-amine-carbonyl)-guanidine] | 16.5% | 16.7% | 41% | 4.6% | 26.1% |
| Cc1nc(NC(=N)NC(=O)Nc2ccc(Br)cc2)sc1C [MTF429, 4,5-dimethylthiazol-2-yl-N″-(4-bromoaniline-carbonyl)-guanidine] | 94.2% | 39.1% | – | – | – |
| N=C(NC(=O)Nc1ccc(Cl)cc1)Nc1nc(-c2ccccc2)cs1 [MTF426, N-4-phenylthiazol-2-yl-N″-(4-chloroaniline-carbonyl)-guanidine] | 109% | 46.4% | – | – | – |
| Cc1ccccc1NC(=O)NC(=N)Nc1nc2ccccc2s1 [MTF495, N-benzo[d]thiazol-2-yl-N″-(2-methylaniline-carbonyl)-guanidine] | 38.6% | 8% | – | – | 25.9% |
| Cc1nc(NC(=N)NC(=O)Nc2ccccc2)sc1C [MTF496, 4,5-dimethylthiazol-2-yl-N″-(aniline-carbonyl)-guanidine] | 67.7% | 56.6% | – | – | 83.8% |
| N=C(NC(=O)Nc1ccccc1F)Nc1nc2ccccc2s1 [MTF654, N-benzo[d]thiazol-2-yl-N″-(2-fluoroaniline-carbonyl)-guanidine] | – | – | – | – | 20.3% |
| N=C(NC(=O)Nc1c(Cl)cccc1Cl)Nc1nc2ccccc2s1 [MTF650, N-benzo[d]thiazol-2-yl-N″-(2,6-dichloroaniline-carbonyl)-guanidine] | – | – | – | – | 36.4% |
